Measurements reported in patent US12162857B2, “Antiviral compounds” (priority 2022, dated 2024).

Tested on: Human RSV-A (“Long” strain)
Assay: RSV-A assay: CPE in Hep-2 cells, ATPlite readout
Assay type: cell-based
Conditions: human respiratory syncytial virus, 120 h, MOI 0.1, 5-day incubation
From the text: Hep-2 cells, (originally derived from tumors grown in irradiated-cortisonised weanling rats that had been injected with epidermoid carcinoma tissue from a person's larynx, but later found to be indistinguishable from HeLa cells by PCR DNA analysis), were used for the culturing of genotype A, “Long” strain RSV. Flasks were inoculated with RSV and viral stocks were collected once cytopathic effect (CPE) was greater than 90%. Viral stocks in 25% sucrose media were snap frozen using liquid nitrogen to increase viral stability. Viral stock titers were quantified by tissue culture infectious dose 50% (TCID50) using 8,000 cells per well and 3-fold viral dilutions across a 96-well plate, cultured for 4 days. Viral stock titers were also quantified by a plaque forming unit assay, as described elsewhere.
Following extensive parameter testing, the final assay is run as follows: Hep-2 cells are seeded into the inner 60 wells of a 96-well plate at 8,000 cells per well in a volume of 50 μL using Growth Media (DMEM without phenol red, 1% L-Glut, 1% Penn/Strep, 1% nonessential amino acids, 10% heat-inactivated FBS). 2-fold serial dilutions of control and test compounds are added to the wells in duplicate in a total volume of 25 μL. Viral stock is then added to the wells at a multiplicity of infection (MOI) of 0.1 in a volume of 25 μL, bringing the total volume of each well to 100 μL. The MOI is calculated using the PFU/mL, or TCID50 if unavailable. Each 96-well plate has a control column of 6 wells with cells and virus but no compound (negative control, max CPE), a column with cells but no compound or virus (positive control, minimum CPE), and a column with no cells or virus or compound (background plate/reagent control). The control wells with cells but no virus are given an additional 25 μL of growth media containing an equal quantity of sucrose as those wells receiving the viral stock in order to keep consistent in media and volume conditions. The outer wells of the plate are filled with 125 μL of moat media (DMEM, 100 Penn/Strep) to act as a thermal and evaporative moat around the test wells. Following a 5-day incubation period, the plates are read using ATPlite (50 uL added per well), which quantifies the amount of ATP (a measure of cell health) present in each well. Assay plates are read using the Envision luminometer. […] EC50 ranges are as follows: A<0.01 μM; B 0.01-0.05 μM; C>0.05 μM.

Row | Structure (SMILES) | EC50 [µM]
1 | COc1cc(C(=O)NC[C@](O)(c2cc(C(F)(F)C(N)=O)c(F)c(-c3ccc(F)c(Cl)c3F)n2)C2CC2)cc2cn(C(F)F)nc12 (single isomer, unassigned) [Example 34] | 0.01 to 0.05
2 | NC(=O)C(F)(F)c1cc([C@@](O)(CNC(=O)c2cc(OC3CC3)c3nn(C4CC4)cc3c2)C2CC2)nc(-c2ccc(F)c(Cl)c2F)c1F (single isomer, unassigned) [Example 36] | 0.01 to 0.05
3 | COc1cc(C(=O)NC[C@](O)(c2cc(C(F)(F)C#N)c(F)c(-c3cc(Cl)c(F)cc3F)n2)C2CC2)cc2cn(C3(F)CC3)nc12 [Example 40] | 0.01 to 0.05
4 | COc1cc(C(=O)NC[C@](O)(c2cc(C(F)(F)C(N)=O)c(F)c(-c3ccc(F)c(Cl)c3F)n2)C2CC2)cc2cn(C3CC3)nc12 (single isomer, unassigned) [Example 32] | 0.01 to 0.05
5 | COc1cc(C(=O)NC[C@](O)(c2cc(C(F)(F)C(N)=O)c(F)c(-c3ccc(F)c(Cl)c3F)n2)C2CC2)cc2cc(Cl)c(C)nc12 (single isomer, unassigned) [Example 35] | > 0.05
6 | COc1cc(C(=O)NC[C@](O)(c2cc(C3(C#N)CC3)c(F)c(-c3cc(Cl)c(F)cc3F)n2)C2CC2)cc2cn(C3CC3)nc12 (single isomer, unassigned) [Example 12] | 0.01 to 0.05

Tested on: HMPV A2 TN/94-49
Assay: HMPV antiviral assay: LLC-MK2 cells, ATP-Lite readout
Assay type: cell-based
Conditions: LLC-MK2, 168 h, MOI 0.005, 7 days incubation
Experimental: In vitro HMPV antiviral activity was evaluated using the clinical isolate A2 strain TN 94-49 and LLC-MK2 cells (ATCC #CCL-7), an immortalized kidney epithelial cell line from Macaca mulatta. Compounds were resuspended in dimethyl sulfoxide (DMSO) at 10 mM, serially diluted and added to a 384-well source plate. Subsequently, the compounds were diluted and transferred onto 384-well assay plates using the Echo-650 automated liquid handling system (Beckman Coulter, Indiana). The test compounds were assessed in duplicate at a top concentration of 2 μM followed by 2.5-fold serial dilutions to give a total of 10 concentration points. DMSO control wells were also included on the assay plates and were either infected or not, acting as positive and negative controls. A2 TN 94-49 virus infections were performed in-suspension with LLC-MK2 cells. The cells were washed twice with PBS and removed from the cell-culture flask with 0.25% trypsin-EDTA (Thermo Fisher Scientific, MA). The trypsin-EDTA was inactivated by resuspending in 2% fetal bovine serum (FBS) and OptiMEM (ThermoFisher Scientific, MA) containing 1% penicillin-streptomycin. Cells were pelleted by centrifuging for 5 minutes at 800 rpm, the supernatant was removed, and cells were re-suspended and washed in PBS plus 100 μg/mL CaCl2). This step was performed twice. Cells were then re-suspended in serum-free (SF)-OptiMEM containing 4 μg/mL TPCK-Trypsin (Sigma Aldrich, MO), 1% penicillin-streptomycin (ThermoFisher Scientific, MA) and 100 μg/mL CaCl2). Cells were counted and seeded at a density of 5,000 cells/well, 12.5 μL/well. Virus infections were done at a multiplicity of infection (MOI) of 0.005 with 12.5 μL added per well. Virus infections were performed in infection media which contained SF-OptiMEM, 100 μg/mL CaCl2) and 1% penicillin-streptomycin. HMPV viral stocks are suspended in infection media+5% glycerol, thus an equal volume of infection media+5% glycerol was added to uninfected wells to equalize the final % glycerol across all wells of the assay plate. The final concentration of TPCK-trypsin was 2 μg/mL. The assay plates were incubated at 37° C., 5% CO2 for 7 days. After 7 days incubation, 12.5 μL of ATP-Lite (PerkinElmer, MA) was added to each well and the raw luminescence values were determined using the Envision 2104 (Perkin Elmer, MA). The average of the raw luminescence values for the cells and virus only positive control wells was subtracted from all conditions tested and the percent cell health was determined by dividing these values by the average of the cells only negative control wells. EC50 values were then calculated by non-linear regression using a four-parameter curve logistic equation. The curve fit model employed was XLFit Dose Response One Site Model 200: y=(A+(B/(1+((x/C)^D)))), where A is the minimum y value, B is the maximum y value, C is the log EC50 value, and D is the slope factor. […] EC50 ranges are as follows: A<1 μM; B>1 μM.

Row | Structure (SMILES) | EC50 [µM]
7 | COc1cc(C(=O)NC[C@](O)(c2cc(C3(O)COC3)c(F)c(-c3cc(Cl)c(F)cc3F)n2)C2CC2)cc2cn(C3CC3)nc12 [Example 167] | > 1
8 | COc1c(C(C)(C)O)cc([C@@](O)(CNC(=O)c2cc(OC)c3nn(C4CC4)cc3c2)C2CC2)nc1-c1cc(F)c(F)cc1F (single isomer, unassigned) [Example 165] | > 1
9 | COc1cc(C(=O)NC[C@@](O)(c2ccccc2)c2cc(C(C)(C)O)c(Cl)c(-c3cc(Cl)c(F)cc3F)n2)cc2sc(C)nc12 [Example 131] | > 1
10 | COc1cc(C(=O)NC[C@@](O)(c2cccc(F)c2)c2cc(C(C)(C)O)c(F)c(-c3ccc4c(c3Cl)OC(F)(F)O4)n2)cc2sc(C)nc12 [Example 108] | < 1
11 | COc1cc(C(=O)NC[C@@](O)(c2cccc(F)c2)c2cc(C(C)(C)O)c(F)c(-c3ccc(F)c(Cl)c3Cl)n2)cc2cc(C3CC3)nn12 [Example 106] | > 1
12 | CC(C)(O)c1cc(-c2cccc(Cl)c2Cl)nc([C@@](O)(CNC(=O)c2cc(Cl)c3nn(C4CC4)cc3c2)c2ccccc2)c1 [Example 149] | < 1
13 | COc1cc(C(=O)NC[C@@](O)(c2ccccc2)c2cc(C(C)(C)C(N)=O)c(F)c(-c3cc(Cl)c(F)cc3F)n2)cc2sc(C)nc12 [Example 163] | > 1
14 | COc1cc(C(=O)NC[C@](O)(c2cc(C(C)(C)O)c(F)c(-c3ccc(F)c(Cl)c3F)n2)C2CC2)cc2cn(C(F)F)nc12 [Example 118] | < 1
15 | COc1cc(C(=O)NC[C@@](O)(c2ccccc2)c2cc(C(C)(C)O)c(F)c(-c3ccc(F)c(Cl)c3Cl)n2)cc2sc(C)nc12 [Example 71] | < 1
16 | COc1cc(C(=O)NC[C@](O)(c2ccc(F)c(-c3cc(Cl)c(F)cc3F)n2)C2CC2)cc2cc(C)cnc12 [Example 175] | > 1
17 | COc1cc(C(=O)NC[C@@](O)(c2cccc(F)c2)c2cc(C(C)(C)O)c(F)c(-c3cccc(Cl)c3Cl)n2)cc2cn(C3CC3)nc12 [Example 98] | < 1
18 | COc1cc(C(=O)NC[C@@](O)(c2ccccc2)c2cc(N3C(=O)CC[C@H]3C(N)=O)cc(-c3cc(Cl)c(F)cc3F)n2)cc2cn(C3CC3)nc12 [Example 196] | > 1
19 | COc1cc(C(=O)NC[C@@](O)(c2ccccc2)c2cc(C(C)(C)O)c(Cl)c(-c3cccc(Cl)c3Cl)n2)cc2cn(C3CC3)nc12 [Example 140] | > 1
20 | COc1cc(C(=O)NC[C@](O)(c2ccc(F)c(-c3cc(Cl)c(F)cc3F)n2)C2CC2)cc2cn(C(F)F)nc12 [Example 174] | > 1
21 | COc1cc(C(=O)NC[C@@](O)(c2ccccc2)c2cc(C(C)(C)O)c(F)c(-c3ccc4c(c3Cl)OC(F)(F)O4)n2)cc2cn(C(F)F)nc12 [Example 76] | < 1
22 | CC(C)(O)c1cc([C@@](O)(CNC(=O)c2cc(Cl)c3nn(C4CC4)cc3c2)c2cccc(F)c2)nc(-c2ccc(F)c(Cl)c2Cl)c1F [Example 105] | < 1
23 | COc1cc(C(=O)NC[C@@](O)(c2ccccc2)c2cc(C(C)(C)F)c(F)c(-c3cc(Cl)c(F)cc3F)n2)cc2cc(C3CC3)nn12 [Example 181] | > 1
24 | COc1cc(C(=O)NC[C@](O)(c2cc(C(C)(C)O)c(F)c(-c3ccc(F)c(Cl)c3F)n2)C2CC2)cc2cn(C3(F)CC3)nc12 [Example 120] | < 1
25 | COc1cc(C(=O)NC[C@@](O)(c2ccccc2)c2cc(C(C)(C)O)c(Cl)c(-c3cccc(Cl)c3Cl)n2)cc2cn(C(F)F)nc12 [Example 142] | > 1
26 | COc1cc(C(=O)NC[C@@](O)(c2ccccc2)c2cc(C(C)(C)C(N)=O)c(F)c(-c3cc(Cl)c(F)cc3F)n2)cc2cn(C(F)F)nc12 [Example 161] | > 1
27 | COc1cc(C(=O)NC[C@@](O)(c2ccccc2)c2cc(C(C)(C)O)c(Cl)c(-c3ccc4c(c3Cl)OC(F)(F)O4)n2)cc2cc(C3CC3)nn12 [Example 155] | < 1
28 | CC(C)(O)c1cc([C@@](O)(CNC(=O)c2cc(OC3CC3)c3nn(C4CC4)cc3c2)c2ccccc2)nc(-c2ccc(F)c(Cl)c2F)c1F [Example 125] | < 1
29 | COc1cc(C(=O)NC[C@](O)(c2cc(C(C)(C)O)c(F)c(-c3cc(Cl)c(F)cc3F)n2)C2CC2)cc2cn(C(F)F)nc12 [Example 54] | < 1
30 | COc1cc(C(=O)NC[C@@](O)(c2ccccc2)c2cc(C(C)(C)O)c(F)c(-c3cccc(Cl)c3Cl)n2)cc2sc(C)nc12 [Example 78] | < 1
31 | CC(C)(O)c1cc([C@@](O)(CNC(=O)c2cc(Cl)c3nn(C4CC4)cc3c2)c2cccc(F)c2)nc(-c2cc(Cl)c(F)cc2F)c1F [Example 91] | < 1
32 | CC(C)(O)c1cc([C@@](O)(CNC(=O)c2cc(Cl)c3nn(C4CC4)cc3c2)c2ccccc2)nc(-c2cccc(Cl)c2Cl)c1F [Example 82] | < 1
33 | COc1cc(C(=O)NC[C@@](O)(c2ccccc2)c2cc(C(=O)NCC(C)(C)O)c(F)c(-c3cc(Cl)c(F)cc3F)n2)cc2cn(C3CC3)nc12 [Example 193] | > 1
34 | COc1cc(C(=O)NC[C@@](O)(c2ccccc2)c2cc(C(C)(C)O)c(Cl)c(-c3ccc4c(c3Cl)OC(F)(F)O4)n2)cc2sc(C)nc12 [Example 135] | > 1
35 | COc1cc(C(=O)NC[C@@](O)(c2ccccc2)c2cc(C(C)(C)O)cc(-c3ccc4c(c3Cl)OC(F)(F)O4)n2)cc2cn(C3CC3)nc12 [Example 156] | < 1
36 | CC(C)(O)c1cc([C@@](O)(CNC(=O)c2cc(Cl)c3nn(C4CC4)cc3c2)c2ccccc2)nc(-c2cc(Cl)c(F)cc2F)c1Cl [Example 133] | > 1
